Molecules are shown by their SMILES.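 The compound was tested at five concentrations on cells cultured in 96-well plates, with a 48-hour exposure period. At the TGI there is no net growth.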 Where a SMILES comes first, the peptide text is derived from it. The star is where a group is joined. Cbz = O=C(OCc1ccccc1)* Where only a bound is given, the exact number is not on record here.

Here are results for 13 compounds from PubChem BioAssay (NCI).

Test systems include OVCAR-3 ovarian; MALME-3M melanoma; SF-539 CNS; SNB-75 CNS; KM12 colon; A498 renal; TK-10 renal; OVCAR-8 ovarian; SR leukemia; HOP-92 NSCLC; T-47D breast.
Common to all, as to assay: NCI-60 cell line screen, 48 h

Consider `CCOC(=O)CCC1(CCC(=O)OCC)CCCCCCCCC(CCC(=O)OCC)(CCC(=O)OCC)C(=O)C1=O`, for which the TGI in the experiment on OVCAR-3 ovarian, with MALME-3M melanoma, in the experiment with SF-539 CNS, with SNB-75 CNS, in the experiment with KM12 colon and in the experiment with A498 renal was more than 100 µM each time. Also, the TGI in the experiment on TK-10 renal, in the experiment with OVCAR-8 ovarian, with SR leukemia, with HOP-92 NSCLC and in the experiment on T-47D breast was more than 100 µM each time.

For the compound `Oc1c(Br)ccc2cccnc12`, the TGI with OVCAR-3 ovarian was more than 23.3 µM; in the experiment on MALME-3M melanoma, more than 64.4 µM; in the experiment with SF-539 CNS, more than 50.6 µM; with SNB-75 CNS, more than 100 µM; in the experiment with KM12 colon, more than 100 µM; with A498 renal it was 51.8 µM. Further, the TGI in the experiment with TK-10 renal was more than 100 µM; in the experiment with OVCAR-8 ovarian, more than 100 µM; in the experiment on SR leukemia it was more than 27.7 µM; with HOP-92 NSCLC, 69.7 µM; with T-47D breast it was 21.1 µM.

On to `Cc1ccnc2c1C(=O)C1=C(OC(C)(C)CC1O)C2=O` (stereo not given), for which the TGI is 7.18 µM in the experiment with OVCAR-3 ovarian; 3.02 µM in the experiment with MALME-3M melanoma; 10.4 µM in the experiment on SF-539 CNS; 0.297 µM with SNB-75 CNS; 15 µM in the experiment on KM12 colon; 32 µM with A498 renal. Besides, the TGI with TK-10 renal is 24.4 µM; with OVCAR-8 ovarian, 11.8 µM; in the experiment on SR leukemia, 15.4 µM; in the experiment on HOP-92 NSCLC it was 24.6 µM; in the experiment on T-47D breast, 19.4 µM.

Turning to `CCOC(=O)CCC(NC(=O)C(Cc1ccccc1)NC(=O)OCc1ccccc1)C(=O)OCC` (stereo not drawn) (Cbz-Phe-Glu(OEt)-OEt; configuration not given here), the TGI was 28.6 µM in the experiment on OVCAR-3 ovarian; 33.1 µM with MALME-3M melanoma; 37.6 µM in the experiment on SF-539 CNS; 35.1 µM in the experiment on SNB-75 CNS; 32.6 µM with KM12 colon; 43.9 µM with A498 renal. For the same compound, the TGI in the experiment on TK-10 renal is 34.6 µM; in the experiment on OVCAR-8 ovarian, 36.2 µM; in the experiment on SR leukemia, more than 68.8 µM; in the experiment on HOP-92 NSCLC, 36.3 µM; with T-47D breast, 32.2 µM.

Consider `O=C1/C(=C\c2cccc(Oc3ccccc3)c2)S(=O)(=O)C(c2ccccc2)N1c1cccc(Cl)c1` (stereo not given), for which the TGI in the experiment with OVCAR-3 ovarian, in the experiment with MALME-3M melanoma, in the experiment with SF-539 CNS, in the experiment with SNB-75 CNS, in the experiment with KM12 colon and in the experiment on A498 renal was more than 100 µM throughout. In addition, the TGI in the experiment with TK-10 renal is more than 100 µM; in the experiment with OVCAR-8 ovarian, 69.4 µM; in the experiment on SR leukemia it was more than 100 µM; in the experiment on HOP-92 NSCLC, more than 100 µM; in the experiment with T-47D breast, more than 100 µM.

`COc1cc2c(cc1O)NC(=O)[C@@H]1CCCN1C2=O`: the TGI with OVCAR-3 ovarian, in the experiment on MALME-3M melanoma, in the experiment on SF-539 CNS, in the experiment on SNB-75 CNS, in the experiment with KM12 colon and in the experiment on A498 renal was more than 100 µM each time. Moreover, the TGI in the experiment on TK-10 renal, with OVCAR-8 ovarian, in the experiment on SR leukemia, in the experiment with HOP-92 NSCLC and in the experiment with T-47D breast was more than 100 µM in each case.

As to `CC(=O)c1c(N=[N+]=[N-])c2cccc3c2n(c1=O)CCC3`, the TGI in the experiment on OVCAR-3 ovarian is 18.9 µM; in the experiment with MALME-3M melanoma it was 27.6 µM; with SF-539 CNS it was more than 100 µM; in the experiment on SNB-75 CNS, 59.3 µM; with KM12 colon it was 28.7 µM; in the experiment on A498 renal, 55.6 µM. Moreover, the TGI in the experiment on TK-10 renal is 59 µM; with OVCAR-8 ovarian, 16.1 µM; in the experiment with SR leukemia it was more than 100 µM; in the experiment on HOP-92 NSCLC, 67.7 µM; in the experiment on T-47D breast, 60.4 µM.

As for `N#Cc1cc2c(cc1Cl)Sc1nnc(Nc3ccccc3)n1S2(=O)=O`, the TGI turned out to be 3.82 µM with OVCAR-3 ovarian; 5 µM in the experiment with MALME-3M melanoma; 4.41 µM in the experiment with SF-539 CNS; 10.7 µM in the experiment on SNB-75 CNS; 4.65 µM in the experiment on KM12 colon; 20.8 µM in the experiment with A498 renal. In addition, the TGI with TK-10 renal was 13.3 µM; in the experiment with OVCAR-8 ovarian, 4.41 µM; in the experiment on SR leukemia, 0.696 µM; with HOP-92 NSCLC it was 4.74 µM; in the experiment with T-47D breast, 13.3 µM.

For `S=C1NCCN1C(=S)Nc1ccccc1`, the TGI in the experiment on OVCAR-3 ovarian, in the experiment with MALME-3M melanoma, in the experiment on SF-539 CNS, with SNB-75 CNS, in the experiment on KM12 colon and with A498 renal was more than 100 µM each time. For the same compound, the TGI with TK-10 renal, in the experiment with OVCAR-8 ovarian, in the experiment with SR leukemia, with HOP-92 NSCLC and in the experiment on T-47D breast was more than 100 µM in each case.

For the compound `O=Cc1ccc(-c2ccc(-c3ccc(CO)s3)o2)s1`, the TGI in the experiment with MALME-3M melanoma was more than 66.8 µM; in the experiment with SF-539 CNS it was more than 81.6 µM; in the experiment on SNB-75 CNS, 69.1 µM; in the experiment on KM12 colon, more than 100 µM; in the experiment with A498 renal, 0.353 µM; in the experiment on TK-10 renal it was 0.627 µM. In addition, the TGI with OVCAR-8 ovarian was 49 µM; in the experiment with SR leukemia it was 2.74 µM; with HOP-92 NSCLC, 61.5 µM; in the experiment on T-47D breast, 62.3 µM.

For the compound `O=C1C=C(Nc2ccc(S(=O)(=O)Nc3nccs3)cc2)c2ccccc2C1=O`, the TGI was 36 µM in the experiment on OVCAR-3 ovarian; 48.7 µM with MALME-3M melanoma; 41.2 µM in the experiment on SF-539 CNS; 66.8 µM with SNB-75 CNS; 37.7 µM with KM12 colon; more than 100 µM in the experiment on A498 renal. Further, the TGI in the experiment on TK-10 renal is more than 100 µM; in the experiment on OVCAR-8 ovarian, 47.6 µM; with SR leukemia it was more than 100 µM; in the experiment with HOP-92 NSCLC it was more than 100 µM; in the experiment with T-47D breast, more than 100 µM.

Regarding `Cc1[nH]n(-c2nc(O)c(-c3ccccc3)c(=O)[nH]2)c(=O)c1CCO`, the TGI in the experiment on MALME-3M melanoma, in the experiment on SF-539 CNS, with SNB-75 CNS, in the experiment with KM12 colon, with A498 renal and with TK-10 renal was more than 100 µM in each case. Further, the TGI in the experiment on OVCAR-8 ovarian, in the experiment with SR leukemia, with HOP-92 NSCLC and with T-47D breast was more than 100 µM in each case.

For the compound `COc1ccc(N2C(=O)C(=O)N(c3ccc(N=Nc4ccccc4)cc3)C2=S)cc1`, the TGI with MALME-3M melanoma is 33.8 µM; in the experiment on SF-539 CNS, 34.2 µM; with SNB-75 CNS, 55.5 µM; in the experiment with KM12 colon, 32.9 µM; in the experiment on A498 renal it was 52.3 µM; with TK-10 renal, 50.4 µM. Further, the TGI with OVCAR-8 ovarian was 35.6 µM; with SR leukemia it was more than 100 µM; in the experiment with HOP-92 NSCLC it was 31.7 µM; with T-47D breast it was 45.1 µM.
